# Measured values taken from US11197857B2, “Combination therapy” (GlaxoSmithKline Intellectual Property Development Limited, priority 2016, dated 2021).
# Legend:
# [1] = tested on: 196 human cancer cell lines; assay: 6-day growth-death assay (Cell Titer Glo); type: cell-based
# Colon cancer cell lines = assay: 6-day growth-death assay (Cell Titer Glo); type: cell-based, human
# SK-MEL-2 = assay: 6-day growth-death assay (Cell Titer Glo); type: cell-based, human
# From the text: (§1) Cell Titer Glo was used to measure growth inhibition as previously described.
# IGR-1 = assay: 6-day growth-death assay (Cell Titer Glo); type: cell-based, human
# From the text: as §1
# HT144 = assay: 6-day growth-death assay (Cell Titer Glo); type: cell-based, human
# From the text: as §1
# COLO741 = assay: 6-day growth-death assay (Cell Titer Glo); type: cell-based, human
# From the text: as §1
# SK-MEL-5 = assay: 6-day growth-death assay (Cell Titer Glo); type: cell-based, human
# From the text: as §1
# A375 = assay: 6-day growth-death assay (Cell Titer Glo); type: cell-based, human
# From the text: as §1
# MDA-MB-435S = assay: 6-day growth-death assay (Cell Titer Glo); type: cell-based, human
# From the text: as §1
# [2] = tested on: Bladder cancer cell lines; assay: 6-day growth-death assay (Cell Titer Glo); type: cell-based, human; conditions: 18 cell lines
# [3] = tested on: Prostate cancer cell lines; assay: 6-day growth-death assay (Cell Titer Glo); type: cell-based, human; conditions: 4 cell lines
# Kidney cancer cell lines = assay: 6-day growth-death assay (Cell Titer Glo); type: cell-based, human; conditions: 10 cell lines
# NSCLC cell lines = assay: 6-day growth-death assay (Cell Titer Glo); type: cell-based, human; conditions: 25 cell lines
# [4] = tested on: human renal cell carcinoma xenografts (ACHN); assay: ACHN xenograft efficacy; type: in vivo, mouse
# Toledo cells = tested on: Toledo cells
# From the text: FIG. 18: Propidium iodide FACS analysis of cell cycle in human lymphoma cell lines. […] Data represents the average±SEM of biological replicates, n=2.
# [5] = tested on: panel of 4 ccRCC cell lines
# PRMT9 = PRMT9 (Homo sapiens, UniProt Q6P2P2); assay: PRMT family radioactive assay; type: biochemical; conditions: 60 minute SAM:Enzyme:Compound A preincubation
# [6] = tested on: non-TNBC breast cancer cell lines; assay: cells; conditions: Homo sapiens, read-out: Median gIC50
# Description: Cell lines representing triple negative breast cancer (TNBC) are shown in orange; other subtypes are in blue.
# The growth of all cell lines was evaluated over time across a wide range of seeding densities to identify conditions that permitted proliferation throughout the entire 6-day assay. Cells were plated at the optimal seeding density and after overnight incubation, a 20-point 2-fold titration of compound was added and plates were incubated for 6 days. A replicate plate of cells was harvested at the time of compound addition to quantify the starting number of cells (T0). Values obtained after the 6 day treatment were expressed as a function of the T0 value and plotted against compound concentration. The T0 value was normalized to 100% and represents the number of cells at the time of compound addition. The data were fit with a 4 parameter equation to generate a concentration response curve and the growth IC50 (gIC50) was determined. The gIC50 is the midpoint of the ‘growth window’, the difference between the number of cells at the time of compound addition (To) and the number of cells after 6 days (DMSO control). The growth-death assay can be used to quantify the net population change, clearly defining cell death (cytotoxicity) as fewer cells compared to the number at the time of compound addition (To).
# PRMT5/MEP50 = PRMT5/MEP50 (Homo sapiens, UniProt O14744); assay: PRMT family radioactive assay; type: biochemical; conditions: 60 minute SAM:Enzyme:Compound A preincubation
# Lymphoma cell lines = assay: 6-day growth-death assay (Cell Titer Glo); type: cell-based, human; conditions: 59 cell lines
# [7] = tested on: Toledo (human DLBCL) xenograft; assay: Toledo xenograft efficacy
# Melanoma cell lines = assay: 6-day growth-death assay (Cell Titer Glo); type: cell-based, human
# AML cell lines = assay: 6-day growth-death assay (Cell Titer Glo); type: cell-based, human
# [8] = Homo sapiens, read-out: Median gIC50
# PRMT5/MEP50, sequence (O14744 whole entry): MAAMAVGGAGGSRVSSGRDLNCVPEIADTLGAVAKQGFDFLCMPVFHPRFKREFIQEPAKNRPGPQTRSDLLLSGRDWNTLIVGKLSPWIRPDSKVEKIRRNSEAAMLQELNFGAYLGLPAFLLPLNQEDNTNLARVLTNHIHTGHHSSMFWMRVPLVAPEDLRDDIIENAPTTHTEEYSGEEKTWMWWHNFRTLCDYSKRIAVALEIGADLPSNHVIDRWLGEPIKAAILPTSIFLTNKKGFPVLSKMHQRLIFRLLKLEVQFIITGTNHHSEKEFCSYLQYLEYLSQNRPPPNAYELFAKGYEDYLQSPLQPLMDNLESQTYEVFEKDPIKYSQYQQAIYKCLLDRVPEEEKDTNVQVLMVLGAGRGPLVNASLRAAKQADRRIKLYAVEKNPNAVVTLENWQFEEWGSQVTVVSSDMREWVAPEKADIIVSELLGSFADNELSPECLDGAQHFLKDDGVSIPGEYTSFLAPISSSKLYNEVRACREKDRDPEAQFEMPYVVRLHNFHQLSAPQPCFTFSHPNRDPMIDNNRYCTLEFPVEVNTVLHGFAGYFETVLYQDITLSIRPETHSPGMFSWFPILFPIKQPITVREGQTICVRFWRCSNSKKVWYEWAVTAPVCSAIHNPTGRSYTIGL
# PRMT5/MEP50, sequence (Q9BQA1 whole entry partner): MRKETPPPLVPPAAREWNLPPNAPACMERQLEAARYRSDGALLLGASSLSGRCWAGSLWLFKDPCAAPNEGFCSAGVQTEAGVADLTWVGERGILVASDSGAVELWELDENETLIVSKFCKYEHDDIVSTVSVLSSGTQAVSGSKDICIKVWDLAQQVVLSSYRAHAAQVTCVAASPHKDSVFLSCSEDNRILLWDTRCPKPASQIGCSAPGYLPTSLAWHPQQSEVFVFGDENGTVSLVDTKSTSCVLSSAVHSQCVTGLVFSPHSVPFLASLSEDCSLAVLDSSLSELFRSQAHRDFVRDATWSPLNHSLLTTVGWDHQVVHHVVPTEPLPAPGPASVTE
# PRMT9, sequence (Q6P2P2 whole entry): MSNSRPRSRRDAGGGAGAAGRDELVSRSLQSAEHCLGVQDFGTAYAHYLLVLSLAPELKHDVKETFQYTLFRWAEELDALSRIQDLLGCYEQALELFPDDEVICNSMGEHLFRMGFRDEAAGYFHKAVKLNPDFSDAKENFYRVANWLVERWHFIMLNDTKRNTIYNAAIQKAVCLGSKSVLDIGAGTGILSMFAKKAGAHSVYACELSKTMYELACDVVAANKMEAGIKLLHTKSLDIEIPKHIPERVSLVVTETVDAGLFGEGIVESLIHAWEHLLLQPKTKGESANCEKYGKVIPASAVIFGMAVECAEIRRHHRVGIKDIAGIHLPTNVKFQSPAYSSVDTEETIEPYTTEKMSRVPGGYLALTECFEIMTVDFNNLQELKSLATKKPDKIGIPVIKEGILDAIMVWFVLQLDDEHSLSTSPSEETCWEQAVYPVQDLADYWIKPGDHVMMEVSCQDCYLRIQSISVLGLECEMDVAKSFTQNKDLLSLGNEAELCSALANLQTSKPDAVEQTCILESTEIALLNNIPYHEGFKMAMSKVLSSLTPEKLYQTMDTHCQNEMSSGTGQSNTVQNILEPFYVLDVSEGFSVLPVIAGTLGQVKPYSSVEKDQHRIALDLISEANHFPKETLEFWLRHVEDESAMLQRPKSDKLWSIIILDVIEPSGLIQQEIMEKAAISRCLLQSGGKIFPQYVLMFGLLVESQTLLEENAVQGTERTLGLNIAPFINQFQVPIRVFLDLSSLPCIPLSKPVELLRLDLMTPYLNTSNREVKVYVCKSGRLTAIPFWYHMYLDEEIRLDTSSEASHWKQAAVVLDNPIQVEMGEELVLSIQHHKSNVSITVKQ
smiles,measurement,setting,value
CCOCC1(COCC)CCC(c2n[nH]cc2CN(C)CCNC)CC1 [Compound A],IC50,[1]; [8],2120 nM
same,% Cytotoxic (cell lines with negative Ymin-T0),"[1]; Total, 196 cell lines",23%
same,% gIC100 < 2 μM (share of cell lines),"[1]; Total, 196 cell lines",4%
same,Median gIC100,"[1]; Total, 196 cell lines",29.33 µM
same,% Cytotoxic (cell lines with negative Ymin-T0),"Colon cancer cell lines; Colon, 34 cell lines",3%
same,% gIC100 < 2 μM (share of cell lines),"Colon cancer cell lines; Colon, 34 cell lines",0%
same,Median gIC100,"Colon cancer cell lines; Colon, 34 cell lines",29.33 µM
same,IC50,Colon cancer cell lines; [8],5510 nM
same,Ymin-T0,SK-MEL-2,35.9
same,gIC100,SK-MEL-2,22.37 ± 12.11 µM
same,Ymin-T0,IGR-1,507.0
same,gIC100,IGR-1,29.33 ± 0.00 µM
same,Ymin-T0,HT144,124.9
same,gIC100,HT144,29.33 ± 0.00 µM
same,Ymin-T0,COLO741,12.5
same,gIC100,COLO741,28.55 ± 1.40 µM
same,IC50,"SK-MEL-5; Homo sapiens, SK-MEL-5, read-out: gIC50",90 ± 30 nM
same,Ymin-T0,SK-MEL-5; SK-MEL-5,31.8
same,gIC100,SK-MEL-5; SK-MEL-5,27.09 ± 3.92 µM
same,Ymin-T0,A375; A375,91.9
same,gIC100,A375; A375,29.33 ± 0.00 µM
same,IC50,"A375; Homo sapiens, A-375, read-out: gIC50",50 ± 30 nM
same,Ymin-T0,MDA-MB-435S,19.1
same,gIC100,MDA-MB-435S,29.33 ± 0.00 µM
same,% Cytotoxic (cell lines with negative Ymin-T0),[2],0%
same,% gIC100 < 2 μM (share of cell lines),[2],0%
same,Median gIC100,[2],29.33 µM
same,% Cytotoxic (cell lines with negative Ymin-T0),[3],0%
same,% gIC100 < 2 μM (share of cell lines),[3],0%
same,Median gIC100,[3],29.34 µM
same,% Cytotoxic (cell lines with negative Ymin-T0),Kidney cancer cell lines,0%
same,% gIC100 < 2 μM (share of cell lines),Kidney cancer cell lines,0%
same,Median gIC100,Kidney cancer cell lines,29.35 µM
same,% Cytotoxic (cell lines with negative Ymin-T0),NSCLC cell lines,16%
same,% gIC100 < 2 μM (share of cell lines),NSCLC cell lines,0%
same,Median gIC100,NSCLC cell lines,29.33 µM
same,Regression,"[4]; 300 mg/kg QD oral, day 59",(2%)
same,Body weight Difference (vs. vehicle),"[4]; 300 mg/kg QD, day 59",−4%
same,Regression,"[4]; 450 mg/kg QD oral, day 59",(15%)
same,Body weight Difference (vs. vehicle),"[4]; 450 mg/kg QD, day 59",−7%
same,Regression,"[4]; 600 mg/kg QD oral, arm terminated at day 31",(6%)
same,Body weight Difference (vs. vehicle),"[4]; 600 mg/kg QD, arm terminated at day 31",−17%
same,body weight loss,[4]; 600 mg/kg daily,Significant body weight loss
same,Body weight Difference (vs. vehicle),"[4]; […] mg/kg QD, day 59",−3%
same,doses at which regressions were observed,"[4]; oral, daily, up to 59 days",≥ 300 mg/kg
same,concentrations giving accumulation of cells in sub-G1,Toledo cells; beginning after 3 days of treatment,1000 nM
same,concentrations giving increase in sub-G1 population,Toledo cells; by day 7,100 nM
same,percent growth inhibition reached,"[5]; all cell lines evaluated, within 6 days",100%
same,concentration at which caspase cleavage occurred,[5]; only at the highest concentration,30 µM
same,inhibition of activity,PRMT9,failed to inhibit
same,IC50,[6],6800 nM
same,inhibition of activity,PRMT5/MEP50,failed to inhibit
same,% Cytotoxic (cell lines with negative Ymin-T0),Lymphoma cell lines,54%
same,% gIC100 < 2 μM (share of cell lines),Lymphoma cell lines,14%
same,Median gIC100,Lymphoma cell lines,21.62 µM
same,Body weight Difference (vs. vehicle),"[7]; 300 mg/kg QD oral, day 28",−3%
same,Regression,"[7]; 300 mg/kg QD oral, day 28",(37%)
same,Body weight Difference (vs. vehicle),"[7]; 450 mg/kg QD oral, day 28",−8%
same,Regression,"[7]; 450 mg/kg QD oral, day 28",(58%)
same,Body weight Difference (vs. vehicle),"[7]; 600 mg/kg QD oral, day 28",−7%
same,Regression,"[7]; 600 mg/kg QD oral, day 28",(62%)
same,Body weight Difference (vs. vehicle),"[7]; […] mg/kg QD oral, day 28",−4%
same,body weight loss,"[7]; any dose group, 150-600 mg/kg daily, 28 days",no significant body weight loss
same,doses at which regressions were observed,"[7]; oral, daily, 28 days",≥ 300 mg/kg
same,Body weight Difference (vs. vehicle),"[7]; second study, 37.5 mg/kg QD, day 25",−5%
same,Body weight Difference (vs. vehicle),"[7]; second study, 75 mg/kg BID, day 25",−4%
same,Body weight Difference (vs. vehicle),"[7]; second study, 75 mg/kg QD, day 25",−5%
same,Body weight Difference (vs. vehicle),"[7]; second study, 150 mg/kg QD, day 25",−7%
same,% Cytotoxic (cell lines with negative Ymin-T0),"Melanoma cell lines; Melanoma, 7 cell lines",0%
same,% gIC100 < 2 μM (share of cell lines),"Melanoma cell lines; Melanoma, 7 cell lines",0%
same,Median gIC100,"Melanoma cell lines; Melanoma, 7 cell lines",29.33 µM
same,nature of effect,Melanoma cell lines; all melanoma lines,cytostatic
same,number of cell lines in which cytotoxicity was induced,AML cell lines; 10 AML cell lines,5
same,% Cytotoxic (cell lines with negative Ymin-T0),"AML cell lines; AML, 10 cell lines",50%
same,% gIC100 < 2 μM (share of cell lines),"AML cell lines; AML, 10 cell lines",0%
same,Median gIC100,"AML cell lines; AML, 10 cell lines",16.72 µM
same,IC50,AML cell lines; [8],540 nM
